Measured values reported in patent US20230165252A1, “ACTIVE COMPOUND COMBINATIONS” (Bayer Aktiengesellschaft, priority 2020, published 2023).
Where two headings read alike, the source gives them in different places.

Experiments:
Assay type in all cases: cell-based
[1] = tested on: Colletotrichum lindemuthianum; test: in vitro-Test with Colletotrichum lindemuthianum (microtiter growth inhibition)
Experimental: (§1) The degree of efficacy expressed in % is denoted: 0% means an efficacy, which corresponds to that of the control, while an efficacy of 100% means that no disease is observed.
(§2) If the actual fungicidal activity exceeds the calculated value, then the activity of the combination is super-additive, i.e. a synergistic effect exists. In this case, the efficacy, which was actually observed, must be greater than the value for the expected efficacy (E), that was calculated from the abovementioned formula.
(§3) Example: In Vitro-Test with Fungal Microorganisms
(§4) Wells of 96-well microtiter plates are filled with 10 μl of a preparation of test compound or compound combination in methanol+emulsifier alkylaryl-polyglycol-ether. Thereafter, the solvent is evaporated in a hood. At the next step, 100 μl of liquid potato dextrose medium is given into each well, that has been amended with an appropriate concentration of spores or mycelium suspension of the test fungus.
(§5) With the aid of a photometer, the extinction in all wells is measured at the wavelength of 620 nm.
(§6) The microtiter plates are incubated at 20° C. and 85% relative humidity. The inhibition of growth is determined again photometrically 3-5 days after the application. Efficacy is calculated in relation to the untreated control, 0% efficacy means fungal growth as high as in untreated control while 100% efficacy means no fungal growth is measured.

[2] = tested on: Parastagonospora nodorum; test: in vitro-Test with Parastagonospora nodorum (microtiter growth inhibition); conditions: for Efficacy %: compound alone
Experimental: as §1, §2, §3, §4, §5, §6

[3] = tested on: Cordana musae; test: in vitro-Test with Cordana musae (microtiter growth inhibition); conditions: Neocordana musae
Experimental: as §1, §2, §3, §4, §5, §6

[4] = tested on: Fusarium culmorum; test: in vitro-Test with Fusarium culmorum (microtiter growth inhibition); conditions: Fusarium culmorum, read-out: Efficacy
Experimental: as §1, §2, §3, §4, §5, §6

[5] = tested on: Diaporthe citri; test: in vitro-Test with Diaporthe citri (microtiter growth inhibition); conditions: Diaporthe citri, read-out: Efficacy
Procedure, shortened: (§7)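 Test compound or combination in methanol plus alkylaryl-polyglycol-ether emulsifier was dried into microtiter wells, then overlaid with liquid potato dextrose medium seeded with spores or mycelium. Plates were held at 20° C. and 85% relative humidity, and growth was read photometrically at 620 nm after 3-5 days. Efficacy is relative to untreated control.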

[6] = tested on: Ustilago segetum var. avenae; test: in vitro-Test with Ustilago segetum var. avenae (microtiter growth inhibition); conditions: read-out: Efficacy %
Experimental: as §1, §2, §3, §4, §5, §6

[7] = tested on: Botrytis cinerea; test: in vitro-Test with Botrytis cinerea (microtiter growth inhibition); conditions: for Efficacy: applied alone
Procedure, shortened: as §7

[8] = tested on: Cercospora beticola; test: in vitro-Test with Cercospora beticola (microtiter growth inhibition); conditions: Cercospora beticola
Experimental: as §1, §2, §3, §4, §5, §6

[9] = tested on: Alternaria alternate; test: in vitro-Test with Alternaria alternate (microtiter growth inhibition)
Procedure, shortened: as §7

[10] = Colletotrichum lindemuthianum, read-out: Efficacy %
[11] = Parastagonospora nodorum, read-out: Efficacy %

N#Cc1c[nH]cc1-c1cccc2c1OC(F)(F)O2 [(13.001) fludioxonil]
inhibition of growth at 0.04 ppm [1, 10]: 8%
inhibition of growth at 0.2 ppm [1, 10]: 68%
inhibition of growth at 1 ppm [1, 10]: 81%
inhibition of growth at 5 ppm [1, 10]: 44%
Efficacy % ([1]; applied alone at 0.2 ppm): 60%
inhibition of growth at 1 ppm [2, 11]: 34%
inhibition of growth at 5 ppm [2, 11]: 75%
Efficacy % ([2]; 0.04 ppm): 0%
Efficacy % ([2]; 0.2 ppm): 0%

CCO[PH](=O)[O-].CCO[PH](=O)[O-].CCO[PH](=O)[O-].[Al+3] [(15.012) fosetylaluminium]
Efficacy % ([1]; applied alone at 4 ppm): 0%
Efficacy % ([1]; applied alone at 20 ppm): 22%
Efficacy % ([1]; applied alone at 100 ppm): 70%

CCN(C)C=Nc1cc(C)c(Oc2ccccc2F)cc1Cl [Compound 15.064, N′-[2-chloro-4-(2-fluorophenoxy)-5-methylphenyl]-N-ethyl-N-methylimidoformamide]
inhibition of growth at 0.08 ppm ([3]; single substance, 0.080 ppm, read-out: Efficacy): 0%
inhibition of growth at 0.4 ppm ([3]; single substance, 0.4 ppm, read-out: Efficacy): 18%
inhibition of growth at 2 ppm ([3]; single substance, 2 ppm, read-out: Efficacy): 14%
inhibition of growth at 10 ppm ([3]; single substance, 10 ppm, read-out: Efficacy): 5%
inhibition of growth at 0.4 ppm [4]: 0%
inhibition of growth at 2 ppm [4]: 1%
inhibition of growth at 10 ppm [4]: 9%
inhibition of growth at 0.08 ppm ([5]; applied alone, 0.080 ppm): 11%
inhibition of growth at 0.4 ppm ([5]; applied alone, 0.4 ppm): 2%
inhibition of growth at 2 ppm ([5]; applied alone, 2 ppm): 5%
inhibition of growth at 0.4 ppm ([6]; compound alone): 0%
inhibition of growth at 2 ppm ([6]; compound alone): 41%
inhibition of growth at 10 ppm ([6]; compound alone): 100%
inhibition of growth at 0.08 ppm ([6]; single compound, 0.08 ppm): 1%
inhibition of growth at 0.4 ppm ([6]; single compound): 2%
inhibition of growth at 2 ppm ([6]; single compound): 68%
inhibition of growth at 10 ppm ([6]; single compound): 100%
inhibition of growth at 0.04 ppm ([7]; Botrytis cinerea, single active at 0.04 ppm, read-out: Efficacy %): 0%
inhibition of growth at 0.2 ppm ([7]; Botrytis cinerea, single active at 0.2 ppm, read-out: Efficacy %): 100%
inhibition of growth at 1 ppm ([7]; Botrytis cinerea, single active at 1.0 ppm, read-out: Efficacy %): 100%
inhibition of growth at 5 ppm ([7]; Botrytis cinerea, single active at 5.0 ppm, read-out: Efficacy %): 100%
Efficacy ([7]; 0.080 ppm): 0%
Efficacy ([7]; 0.4 ppm): 0%
Efficacy ([7]; 2 ppm): 31%
inhibition of growth at 0.08 ppm ([8]; alone, 0.08 ppm, read-out: Efficacy %): 0%
inhibition of growth at 0.4 ppm ([8]; alone, 0.4 ppm, read-out: Efficacy %): 0%
inhibition of growth at 10 ppm ([8]; alone, 10 ppm, read-out: Efficacy %): 14%

N#Cc1c[nH]cc1-c1cccc2c1OC(F)(F)O2 [fludioxonil]
inhibition of growth at 1 ppm ([3]; read-out: Efficacy, single substance, 1.0 ppm): 20%
inhibition of growth at 5 ppm ([3]; read-out: Efficacy, single substance, 5.0 ppm): 44%
inhibition of growth at 0.04 ppm [4]: 0%
inhibition of growth at 0.08 ppm ([4]; 0.08 ppm): 1%
inhibition of growth at 0.2 ppm ([4]; 0.2 ppm): 0%
inhibition of growth at 0.4 ppm [4]: 1%
inhibition of growth at 1 ppm [4]: 91%
inhibition of growth at 2 ppm [4]: 2%
inhibition of growth at 5 ppm ([4]; 5.0 ppm): 100%
inhibition of growth at 10 ppm [4]: 11%
inhibition of growth at 0.04 ppm [5]: 12%
inhibition of growth at 0.2 ppm [5]: 0%
inhibition of growth at 1 ppm [5]: 45%
inhibition of growth at 5 ppm [5]: 10%
inhibition of growth at 0.04 ppm [6]: 10%
inhibition of growth at 0.2 ppm [6]: 60%
inhibition of growth at 1 ppm [6]: 100%
inhibition of growth at 5 ppm [6]: 100%
Efficacy ([7]; 0.04 ppm): 12%
Efficacy ([7]; 0.2 ppm): 99%
Efficacy ([7]; 1.0 ppm): 100%
Efficacy ([7]; 5.0 ppm): 100%
inhibition of growth at 5 ppm ([8]; read-out: Efficacy %, alone, 5.0 ppm): 95%
inhibition of growth at 0.04 ppm ([9]; Alternaria, read-out: Efficacy %, 0.04 ppm, alone): 0%
inhibition of growth at 0.2 ppm ([9]; Alternaria, read-out: Efficacy %, 0.2 ppm, alone): 0%
inhibition of growth at 1 ppm ([9]; Alternaria, read-out: Efficacy %, 1.0 ppm, alone): 87%
inhibition of growth at 5 ppm ([9]; Alternaria, read-out: Efficacy %, 5.0 ppm, alone): 100%
inhibition of growth at 0.04 ppm ([9]; Alternaria, read-out: Efficacy, applied alone, 0.04 ppm): 0%
inhibition of growth at 0.2 ppm ([9]; Alternaria, read-out: Efficacy, applied alone, 0.2 ppm): 0%
inhibition of growth at 1 ppm ([9]; Alternaria, read-out: Efficacy, applied alone, 1.0 ppm): 96%
inhibition of growth at 5 ppm ([9]; Alternaria, read-out: Efficacy, applied alone, 5.0 ppm): 100%

CON=C(C(=O)OC)c1ccccc1CON=C(C)c1cccc(C(F)(F)F)c1 [trifloxystrobin]
inhibition of growth at 0.008 ppm ([3]; single substance, 0.008 ppm, read-out: Efficacy): 29%
inhibition of growth at 0.2 ppm ([3]; single substance, 0.2 ppm, read-out: Efficacy): 66%
inhibition of growth at 0.008 ppm ([4]; 0.008 ppm): 0%
inhibition of growth at 0.04 ppm [4]: 0%
inhibition of growth at 1 ppm [4]: 11%
inhibition of growth at 0.008 ppm ([5]; applied alone, 0.008 ppm): 82%
inhibition of growth at 0.04 ppm ([5]; applied alone, 0.04 ppm): 94%
inhibition of growth at 0.2 ppm ([5]; applied alone, 0.2 ppm): 97%
inhibition of growth at 1 ppm ([5]; applied alone, 1.0 ppm): 98%
Efficacy ([2]; 0.008 ppm): 38%
Efficacy ([2]; 0.04 ppm): 63%
Efficacy ([2]; 0.2 ppm): 78%
Efficacy ([2]; 1.0 ppm): 79%
inhibition of growth at 0.008 ppm ([6]; single compound, 0.008 ppm): 16%
inhibition of growth at 0.04 ppm ([6]; single compound, 0.04 ppm): 40%
inhibition of growth at 0.2 ppm ([6]; single compound, 0.2 ppm): 53%
inhibition of growth at 0.008 ppm ([8]; alone, 0.008 ppm, read-out: Efficacy %): 98%
inhibition of growth at 0.2 ppm ([8]; alone, 0.2 ppm, read-out: Efficacy %): 95%
inhibition of growth at 0.008 ppm ([9]; Alternaria, 0.008 ppm, alone, read-out: Efficacy %): 56%
inhibition of growth at 0.04 ppm ([9]; Alternaria, 0.04 ppm, alone, read-out: Efficacy %): 84%
inhibition of growth at 0.2 ppm ([9]; Alternaria, 0.2 ppm, alone, read-out: Efficacy %): 90%
inhibition of growth at 1 ppm ([9]; Alternaria, 1.0 ppm, alone, read-out: Efficacy %): 98%
inhibition of growth at 0.04 ppm ([9]; Alternaria, applied alone, 0.04 ppm, read-out: Efficacy): 82%
inhibition of growth at 0.2 ppm ([9]; Alternaria, applied alone, 0.2 ppm, read-out: Efficacy): 87%
Efficacy ([9]; applied alone, 0.008 ppm): 51%
